Common to all, as to assay type: cell-based
Assay [1] deals with S. aureus USA 300. The assay can be described thus: broth microdilution MIC assay, S. aureus USA 300. To be noted: Staphylococcus aureus; Table 4; S. aureus USA300; read-out: S. aureus USA300 MIC. The method, then: (§1) To determine the ability of test compounds to potentiate the inhibition of the growth of bacterial strains, classic cell-based broth microdilution MIC assays were employed. MIC assays are performed according to CLSI methods except where otherwise noted (CLSI, 2011 and CLSI, 2009). The reference strains S. aureus ATCC 29213 (methicillin sensitive), S. aureus ATCC 33591 (methicillin-resistant), E. coli ATCC 25922 (wild-type/QC strain), P. aeruginosa ATCC 27853 (wild-type/QC strain), and the clinical isolate P. aeruginosa PA 8 were used to determine the ability of the exemplary carbapenem compounds to inhibit bacterial growth. An expanded panel of methicillin resistance S. aureus (MRSA) and Pseudomonas was also used to determine the ability of exemplary carbapenem compounds to inhibit bacterial growth across a broader representation of those species. To determine activity in MRSA and in addition to S. aureus ATCC 33591, S. aureus USA 300, USA 400 and USA 600, some of the most common clones found to cause human infection, were also used. To further gauge the impact on the carbapenem compounds due to various resistance mechanisms in Pseudomonas, the following strains were included: P. aeruginosa 35151 (hyper-permeable strain), P. aeruginosa AmexAB-OprM (an efflux pump knockout), and P. aeruginosa PA 3 (a clinical isolate of reduced carbapenem susceptibility). Briefly, cryo-preserved bacterial cultures of clinical strains are streaked for isolation on appropriate agar medium, in this case Mueller Hinton II agar. Following incubation to allow formation of colonies, these plates are sealed with parafilm and stored refrigerated for up to two weeks. For preparation of assay inocula and to ensure low variability, at least 5 colonies are picked from the agar plates with an inoculating loop and aseptically transferred to a culture tube containing 3 mL of Mueller-Hinton Broth (supplemented with divalent cations to required levels based on Manufacturers' specification). The broth culture is grown for 3-5 hours at 37° C. with shaking at 200 rpm. Meanwhile, 2-fold serial dilutions of test compounds are conducted in a 96 well plate with a final volume of 75 μL per well at 2-fold the final desired concentration. After the dilution plates are set up the growing cultures are then diluted in a cuvette containing MH II broth and the optical density is measured at 600 nm. Inocula are diluted such that 75 μL of this culture in Mueller-Hinton Broth results in a starting bacterial concentration of 5×10^5 CFU/mL when added to the dilution plates. The plates are incubated 16-20 hours at 37° C. The MIC is read visually as the lowest concentration well with no bacterial growth.
(§2) Representative results are shown in Tables 3, 4, and 5 where A represents an MIC>32 μg/mL, B represents an MIC between 8 and 32 μg/mL inclusive, C represents an MIC between 1 and 4 μg/mL inclusive, and D represents an MIC of <1 μg/mL. NT=Not Tested.

For assay [2], the system named is E. coli ATCC 25922 (wild-type/QC strain). Kind of assay: broth microdilution MIC assay, E. coli ATCC 25922. The note with it: Escherichia coli, ATCC25922; Table 4; E. coli 25922; read-out: E. coli 25922 MIC. The method, then:
as §1, §2

In assay [3] the test system is P. aeruginosa ATCC 27853 (wild-type/QC strain). Kind of assay: broth microdilution MIC assay, P. aeruginosa ATCC 27853. The note with it: Pseudomonas aeruginosa, ATCC27853; Table 5; P. aeruginosa 27853; read-out: P. aeruginosa 27853 MIC. The method, then: as §1, §2
Assay [4] has as its system S. aureus USA600. The assay can be described thus: broth microdilution MIC assay, S. aureus USA 600. To be noted: Staphylococcus aureus; Table 4; S. aureus USA600; read-out: S. aureus USA600 MIC. The method, then: as §1, §2
In assay [5] the test system is P. aeruginosa ΔmexAB-OprM (an efflux pump knockout). The assay can be described thus: broth microdilution MIC assay, P. aeruginosa ΔmexAB-OprM. The note with it: Pseudomonas aeruginosa, 20 h, read-out: P. aeruginosa ΔmexAB-OprM MIC. The method, then: as §1, §2
For assay [6], the system named is S. aureus ATCC 33591 (methicillin-resistant). Kind of assay: broth microdilution MIC assay, S. aureus ATCC 33591. To be noted: Staphylococcus aureus, ATCC33591; Table 4; S. aureus 33591; read-out: S. aureus 33591 MIC. The method, then:
as §1, §2

The test system of assay [7] is P. aeruginosa 35151 (hyper-permeable strain). Kind of assay: broth microdilution MIC assay, P. aeruginosa 35151. To be noted: Pseudomonas aeruginosa, read-out: P. aeruginosa 35151 MIC. The method, then: as §1, §2

The values below come from US12084445B2, “Broad-spectrum carbapenems” (VenatoRx Pharmaceuticals, Inc., priority 2018, dated 2024).

Molecules are shown by their SMILES.

Consider `C[C@@H](O)[C@H]1C(=O)N2C(C(=O)O)=C(S[C@@H]3CCN(C[C@@H]4CCN(C(=N)N)C4)C3)[C@H](C)[C@H]12` [Example 54, (4R,5S,6S)-3-(((R)-1-(((S)-1-carbamimidoylpyrrolidin-3-yl)methyl)pyrrolidin-3-yl)thio)-6-((R)-1-hydroxyethyl)-4-methyl-7-oxo-1-azabicyclo[3.2.0]hept-2-ene-2-carboxylic acid], for which the MIC was under 1 µg/mL in assay [1]; under 1 µg/mL in assay [2]; 1 to 4 µg/mL in assay [3]; 1 to 4 µg/mL in assay [4]; under 1 µg/mL in assay [5]; 1 to 4 µg/mL in assay [6]. Also, in assay [7], the MIC was under 1 µg/mL.
`C[C@@H](O)[C@H]1C(=O)N2C(C(=O)O)=C(SC3CN(C4CCNCC4)C3)[C@H](C)[C@H]12` [Example 55, (4R,5S,6S)-6-((R)-1-hydroxyethyl)-4-methyl-7-oxo-3-((1-(piperidin-4-yl)azetidin-3-yl)thio)-1-azabicyclo[3.2.0]hept-2-ene-2-carboxylic acid]: the MIC in assay [1] is 1 to 4 µg/mL; in assay [2] it was under 1 µg/mL; in assay [3] it was 1 to 4 µg/mL; in assay [4], under 1 µg/mL; in assay [5], 1 to 4 µg/mL; in assay [6], 1 to 4 µg/mL. The minimal inhibitory concentration (MIC) in assay [7] is under 1 µg/mL.
As for `C[C@@H](O)[C@H]1C(=O)N2C(C(=O)O)=C(SC3CN(CCC4CCNCC4)C3)[C@H](C)[C@H]12` [Example 56, (4R,5S,6S)-6-((R)-1-hydroxyethyl)-4-methyl-7-oxo-3-((1-(2-(piperidin-4-yl)ethyl)azetidin-3-yl)thio)-1-azabicyclo[3.2.0]hept-2-ene-2-carboxylic acid], the MIC was 1 to 4 µg/mL in assay [1]; under 1 µg/mL in assay [2]; 1 to 4 µg/mL in assay [3]; 1 to 4 µg/mL in assay [4]; 1 to 4 µg/mL in assay [5]; 1 to 4 µg/mL in assay [6]. Moreover, in assay [7], the MIC was under 1 µg/mL.
On to `C[C@@H](O)[C@H]1C(=O)N2C(C(=O)O)=C(SC3CN(CC4CCCNC4)C3)[C@H](C)[C@H]12` (stereo partly drawn) [Example 57, (4R,5S,6S)-6-((R)-1-hydroxyethyl)-4-methyl-7-oxo-3-((1-(piperidin-3-ylmethyl)azetidin-3-yl)thio)-1-azabicyclo[3.2.0]hept-2-ene-2-carboxylic acid], for which the MIC in assay [1] is 1 to 4 µg/mL; in assay [2] it was under 1 µg/mL; in assay [3], 1 to 4 µg/mL; in assay [4], 1 to 4 µg/mL; in assay [5], 1 to 4 µg/mL; in assay [6], 8 to 32 µg/mL. In addition, in assay [7], the MIC was under 1 µg/mL.
In the case of `C[C@@H](O)[C@H]1C(=O)N2C(C(=O)O)=C(SC3CN(C[C@@H]4CCNC4)C3)[C@H](C)[C@H]12` [Example 58, (4R,5S,6S)-6-((R)-1-hydroxyethyl)-4-methyl-7-oxo-3-((1-(((R)-pyrrolidin-3-yl)methyl)azetidin-3-yl)thio)-1-azabicyclo[3.2.0]hept-2-ene-2-carboxylic acid], the MIC in assay [1] is 1 to 4 µg/mL; in assay [2] it was under 1 µg/mL; in assay [3], 1 to 4 µg/mL; in assay [4] it was 1 to 4 µg/mL; in assay [5] it was 1 to 4 µg/mL; in assay [6], 1 to 4 µg/mL. In addition, the MIC in assay [7] was under 1 µg/mL.
As for `C[C@@H](O)[C@H]1C(=O)N2C(C(=O)O)=C(SC3CN(C[C@H]4CCNC4)C3)[C@H](C)[C@H]12` [Example 59, (4R,5S,6S)-6-((R)-1-hydroxyethyl)-4-methyl-7-oxo-3-((1-(((S)-pyrrolidin-3-yl)methyl)azetidin-3-yl)thio)-1-azabicyclo[3.2.0]hept-2-ene-2-carboxylic acid], the MIC is 1 to 4 µg/mL in assay [1]; under 1 µg/mL in assay [2]; 1 to 4 µg/mL in assay [3]; 1 to 4 µg/mL in assay [4]; 1 to 4 µg/mL in assay [5]; 1 to 4 µg/mL in assay [6]. In addition, the MIC in assay [7] was under 1 µg/mL.
With `C[C@@H](O)[C@H]1C(=O)N2C(C(=O)O)=C(SC3CN(C[C@H]4CNCCO4)C3)[C@H](C)[C@H]12` [Example 60, (4R,5S,6S)-6-((R)-1-hydroxyethyl)-4-methyl-3-((1-(((R)-morpholin-2-yl)methyl)azetidin-3-yl)thio)-7-oxo-1-azabicyclo[3.2.0]hept-2-ene-2-carboxylic acid], the MIC in assay [1] is 1 to 4 µg/mL; in assay [2], under 1 µg/mL; in assay [3], 8 to 32 µg/mL; in assay [4] it was 1 to 4 µg/mL; in assay [5] it was 1 to 4 µg/mL; in assay [6], 8 to 32 µg/mL. Besides, in assay [7], the MIC is under 1 µg/mL.
For the compound `C[C@@H](O)[C@H]1C(=O)N2C(C(=O)O)=C(SC3CN(C[C@@H]4CNCCO4)C3)[C@H](C)[C@H]12` [Example 61, (4R,5S,6S)-6-((R)-1-hydroxyethyl)-4-methyl-3-((1-(((S)-morpholin-2-yl)methyl)azetidin-3-yl)thio)-7-oxo-1-azabicyclo[3.2.0]hept-2-ene-2-carboxylic acid], the minimum inhibitory concentration (MIC) in assay [1] was 1 to 4 µg/mL; in assay [2], under 1 µg/mL; in assay [3] it was 1 to 4 µg/mL; in assay [4], 1 to 4 µg/mL; in assay [5], 1 to 4 µg/mL; in assay [6], 8 to 32 µg/mL. In addition, the minimum inhibitory concentration (MIC) in assay [7] was under 1 µg/mL.
Consider `C[C@@H](O)[C@H]1C(=O)N2C(C(=O)O)=C(SC3CN(C[C@H]4CC[C@H](N)CC4)C3)[C@H](C)[C@H]12` [Example 62, (4R,5S,6S)-3-((1-(((1r,4R)-4-aminocyclohexyl)methyl)azetidin-3-yl)thio)-6-((R)-1-hydroxyethyl)-4-methyl-7-oxo-1-azabicyclo[3.2.0]hept-2-ene-2-carboxylic acid], for which the MIC in assay [1] was 1 to 4 µg/mL; in assay [2], under 1 µg/mL; in assay [3], 1 to 4 µg/mL; in assay [4], under 1 µg/mL; in assay [5], 1 to 4 µg/mL; in assay [6], 1 to 4 µg/mL. Besides, the MIC in assay [7] is under 1 µg/mL.
Consider `C[C@@H](O)[C@H]1C(=O)N2C(C(=O)O)=C(S[C@@H]3CCN(CC4CNCCS4)C3)[C@H](C)[C@H]12` (stereo partly drawn) [Example 63, (4R,5S,6S)-6-((R)-1-hydroxyethyl)-4-methyl-7-oxo-3-(((3R)-1-(thiomorpholin-2-ylmethyl)pyrrolidin-3-yl)thio)-1-azabicyclo[3.2.0]hept-2-ene-2-carboxylic acid], for which the MIC in assay [1] is 1 to 4 µg/mL; in assay [2], under 1 µg/mL; in assay [3], 8 to 32 µg/mL; in assay [4], 1 to 4 µg/mL; in assay [5], 1 to 4 µg/mL; in assay [6], 1 to 4 µg/mL. In addition, in assay [7], the MIC was under 1 µg/mL.
For the compound `C[C@@H](O)[C@H]1C(=O)N2C(C(=O)O)=C(SC3CN(C[C@H]4CC[C@@H](N)CC4)C3)[C@H](C)[C@H]12` [Example 64, (4R,5S,6S)-3-((1-(((1s,4S)-4-aminocyclohexyl)methyl)azetidin-3-yl)thio)-6-((R)-1-hydroxyethyl)-4-methyl-7-oxo-1-azabicyclo[3.2.0]hept-2-ene-2-carboxylic acid], the minimal inhibitory concentration (MIC) was under 1 µg/mL in assay [1]; under 1 µg/mL in assay [2]; 1 to 4 µg/mL in assay [3]; under 1 µg/mL in assay [4]; 1 to 4 µg/mL in assay [5]; 1 to 4 µg/mL in assay [6]. In assay [7], the MIC is under 1 µg/mL.
